Measurements taken from patent US20260125400A1, “TYK2 DEGRADERS AND USES THEREOF” (Kymera Therapeutics, Inc., priority 2023, published 2026).

Molecular target: T1, TYK2 (Homo sapiens, UniProt P29597)
T1 construct: Degradation of TYK2 in cells was quantitatively measured using Meso Scale Discovery (MSD) technology; endogenous in cells; host or cells: OCI-LY10
Assay: TYK2 MSD degradation in OCI-LY10 cells
Assay type: cell-based
Conditions: TYK2 degradation in OCI-LY10 cells, 4 to 24 hours incubation; for DC50: read-out: TYK2 MSD OCI-LY10 Rel-DC50
Method in brief: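 Cellular TYK2 levels were measured by Meso Scale Discovery sandwich detection in RIPA lysates of OCI-LY10 cells exposed 4 to 24 hours at 37° C to nine 1:3 compound doses starting at 1 to 10 μM final; dose-response fitted by four-parameter regression.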

T1 sequence (P29597 whole entry): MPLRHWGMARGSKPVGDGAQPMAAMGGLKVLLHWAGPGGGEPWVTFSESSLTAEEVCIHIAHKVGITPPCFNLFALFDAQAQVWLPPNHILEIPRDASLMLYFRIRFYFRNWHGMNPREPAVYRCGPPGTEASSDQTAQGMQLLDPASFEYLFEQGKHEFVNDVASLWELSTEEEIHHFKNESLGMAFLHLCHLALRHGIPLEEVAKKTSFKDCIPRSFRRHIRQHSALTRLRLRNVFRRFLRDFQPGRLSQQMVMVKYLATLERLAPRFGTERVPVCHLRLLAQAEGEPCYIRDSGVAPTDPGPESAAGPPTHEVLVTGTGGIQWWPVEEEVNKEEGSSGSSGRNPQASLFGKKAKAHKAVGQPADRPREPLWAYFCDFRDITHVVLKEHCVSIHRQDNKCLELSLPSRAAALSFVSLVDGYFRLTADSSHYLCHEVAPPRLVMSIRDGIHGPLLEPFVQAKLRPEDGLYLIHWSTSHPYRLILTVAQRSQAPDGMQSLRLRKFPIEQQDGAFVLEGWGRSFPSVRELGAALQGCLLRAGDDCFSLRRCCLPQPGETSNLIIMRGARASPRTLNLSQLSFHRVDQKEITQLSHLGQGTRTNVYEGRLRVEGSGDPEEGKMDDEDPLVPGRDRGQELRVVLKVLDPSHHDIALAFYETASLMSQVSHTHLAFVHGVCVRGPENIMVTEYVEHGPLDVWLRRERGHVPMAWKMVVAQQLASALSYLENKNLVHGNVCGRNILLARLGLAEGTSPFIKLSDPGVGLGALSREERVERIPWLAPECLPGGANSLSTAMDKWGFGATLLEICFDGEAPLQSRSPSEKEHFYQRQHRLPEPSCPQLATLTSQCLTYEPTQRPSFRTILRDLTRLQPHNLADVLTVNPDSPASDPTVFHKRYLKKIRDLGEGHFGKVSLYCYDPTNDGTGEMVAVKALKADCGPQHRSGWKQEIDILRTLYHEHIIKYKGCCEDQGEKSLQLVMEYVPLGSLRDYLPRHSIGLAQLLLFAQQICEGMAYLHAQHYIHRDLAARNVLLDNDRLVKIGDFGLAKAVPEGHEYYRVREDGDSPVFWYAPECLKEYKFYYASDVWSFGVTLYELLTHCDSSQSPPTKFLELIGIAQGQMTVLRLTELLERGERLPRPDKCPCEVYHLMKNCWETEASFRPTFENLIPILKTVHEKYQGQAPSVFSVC

Question: `CNc1cc(N2CCc3c(-c4ccc(CN5CCC(N6CCC(COc7ccc(Cl)c(N8CCC(=O)NC8=O)c7)CC6)CC5)cn4)cccc32)nn2c(C(=O)NC3CCC3OC)cnc12` (centres unmarked) [I-1006] was tested. Which “TYK2 MSD OCI-LY10 Dmax %” value did it give?
Answer: The value was “B (B (90 to >75%))”.

Question: And the DC50?
Answer: Its DC50 is < 10 nM.

Question: For `CNc1cc(N2CCc3c(-c4ncc(CN5CC6(CCN(C(=O)c7cc(N8CCC(=O)NC8=O)c(C)cc7F)CC6(F)F)C5)cc4F)cccc32)nn2c(C(=O)NC3CCC3OC)cnc12` (centres unmarked) [I-1007], which “TYK2 MSD OCI-LY10 Dmax %” value is on record?
Answer: Its value is “A (A (>90%))”.

Question: What about the DC50 of the same molecule?
Answer: The DC50 was < 1 nM.

Question: What does the source list for `CNc1cc(N2CCc3c(-c4ncc(CN5CC6(CCN(C(=O)c7cc(Cl)c(C)c(N8CCC(=O)NC8=O)c7)CC6(F)F)C5)cc4F)cccc32)nn2c(C(=O)N[C@@H]3C[C@@H]3F)cnc12` [I-1008, 6-(4-(5-((7-(3-chloro-5-(2,4-dioxotetrahydropyrimidin-1(2H)-yl)-4-methylbenzoyl)-5,5-difluoro-2,7-diazaspiro[3.5]nonan-2-yl)methyl)-3-fluoropyridin-2-yl)indolin-1-yl)-N-((1R,2S)-2-fluorocyclopropyl)-8-(methylamino)imidazo[1,2-b]pyridazine-3-carboxamide]?
Answer: Dmax: > 90%; DC50: < 1 nM

Question: `CNc1cc(N2CCc3c(-c4ccc(CN5CCC6(CCC(N(C)c7ccc(Cl)c(N8CCC(=O)NC8=O)c7)CC6)CC5)cn4)cccc32)nn2c(C(=O)N[C@@H]3CC[C@H]3OC)cnc12` [I-1009] was tested. Which “TYK2 MSD OCI-LY10 Dmax %” value did it give?
Answer: The value was “B (B (90 to >75%))”.

Question: What about the DC50 of the same molecule?
Answer: Its DC50 is < 10 nM.

Question: With `CNc1cc(N2CCc3c(-c4ccc(CN5CCC6(CCC(Oc7ccc(Cl)c(N8CCC(=O)NC8=O)c7)CC6)C(F)(F)C5)cn4)cccc32)nn2c(C(=O)NC3CCC3OC)cnc12` (centres unmarked) [I-1010] as the molecule, how does the “TYK2 MSD OCI-LY10 Dmax %” value read?
Answer: The value was “B (B (90 to >75%))”.

Question: What about the DC50 of the same molecule?
Answer: Its DC50 is < 10 nM.

Question: What does the source list for `CNc1cc(N2CCc3c(-c4ccc(CN5CC6(CCN(Cc7ccc(Cl)c(N8CCC(=O)NC8=O)c7)CC6(F)F)C5)cn4)cccc32)nn2c(C(=O)NC3CCC3OC)cnc12` (centres unmarked) [I-1011]?
Answer: TYK2 MSD OCI-LY10 Dmax %: B (B (90 to >75%)); DC50: < 10 nM

Question: `CNc1cc(N2CCc3c(-c4ncc(CN5CC6(CCN(C(=O)c7cc(N8CCC(=O)NC8=O)c(C)cn7)CC6(F)F)C5)cc4F)cccc32)nn2c(C(=O)N[C@@H]3C[C@@H]3F)cnc12` [I-1012] was tested. Which “TYK2 MSD OCI-LY10 Dmax %” value did it give?
Answer: The value was “A (A (>90%))”.

Question: What about the DC50 of the same molecule?
Answer: The DC50 was < 1 nM.

Question: For `CNc1cc(N2CCc3c(-c4ncc(CN5CC6(CCN(C(=O)c7cc(F)c(C)c(N8CCC(=O)NC8=O)c7)CC6(F)F)C5)cc4F)cccc32)nn2c(C(=O)N[C@@H]3C[C@@H]3F)cnc12` [I-1016], which “TYK2 MSD OCI-LY10 Dmax %” value is on record?
Answer: Its value is “A (A (>90%))”.

Question: And the DC50?
Answer: Its DC50 is < 1 nM.

Question: Which results are given for `CNc1cc(N2CCc3c(-c4ccc(OC5CC6(CCN(C(=O)c7cc(C)c(Cl)c(N8CCC(=O)NC8=O)c7)CC6)C5)cn4)cccc32)nn2c(C(=O)N[C@@H]3C[C@@H]3F)cnc12` [I-1017]?
Answer: TYK2 MSD OCI-LY10 Dmax %: B (B (90 to >75%)); DC50: < 10 nM

Question: What does the source list for `CNc1cc(N2CCc3c(-c4ncc(CN5CC6(CCN(C(=O)c7ccc(C)c(N8CCC(=O)NC8=O)c7)CC6(F)F)C5)cc4F)cccc32)nn2c(C(=O)N[C@@H]3C[C@@H]3F)cnc12` [I-1018]?
Answer: TYK2 MSD OCI-LY10 Dmax %: A (A (>90%)); DC50: < 1 nM

Question: How did the “TYK2 MSD OCI-LY10 Dmax %” value turn out when `CNc1cc(N2CCc3c(-c4ncc(CN5CC6(CCN(C(=O)c7ccc(OC)c(N8CCC(=O)NC8=O)c7)CC6(F)F)C5)cc4F)cccc32)nn2c(C(=O)N[C@@H]3C[C@@H]3F)cnc12` [I-1019] was run?
Answer: Its value is “A (A (>90%))”.

Question: And the DC50?
Answer: Its DC50 is < 1 nM.

Question: What does the source list for `CNc1cc(N2CCc3c(CN4CCC(N5CCC6(CCN(C(=O)c7cc(N8CCC(=O)NC8=O)c(C)cn7)CC6)CC5)C(F)(F)C4)cccc32)nn2c(C(=O)N[C@@H]3C[C@@H]3F)cnc12` (some centres unmarked) [I-1022]?
Answer: TYK2 MSD OCI-LY10 Dmax %: B (B (90 to >75%)); DC50: < 1 nM

Question: With `CNc1cc(N2CCc3c(-c4ncc(CN5CC6(CCN(C(=O)c7ccc(Cl)c(N8CCC(=O)NC8=O)c7)CC6(F)F)C5)cc4F)cccc32)nn2c(C(=O)N[C@@H]3C[C@@H]3F)cnc12` [I-1023] as the molecule, how does the “TYK2 MSD OCI-LY10 Dmax %” value read?
Answer: The value was “A (A (>90%))”.

Question: What about the DC50 of the same molecule?
Answer: Its DC50 is < 1 nM.

Question: With `CNc1cc(N2CCc3c(-c4ncc(CN5CC6(CCN(C(=O)c7cc(Cl)c(C)c(N8CCC(=O)NC8=O)c7)CC6(F)F)C5)cc4F)cc(F)cc32)nn2c(C(=O)NC3CCC3OC)cnc12` (centres unmarked) [I-1038] as the molecule, how does the “TYK2 MSD OCI-LY10 Dmax %” value read?
Answer: The value was “A (A (>90%))”.

Question: What about the DC50 of the same molecule?
Answer: The DC50 was < 1 nM.

Question: What does the source list for `CNc1cc(N2CCc3c(CN4CCC(N5CCC(C6CCN(C(=O)c7cc(C)c(Cl)c(N8CCC(=O)NC8=O)c7)CC6)CC5)C(F)(F)C4)cccc32)nn2c(C(=O)N[C@@H]3CC[C@H]3OC)cnc12` (some centres unmarked) [I-1066]?
Answer: TYK2 MSD OCI-LY10 Dmax %: A (A (>90%)); DC50: < 1 nM

Question: For `CNc1cc(N2CCc3c(CN4CCC(N5CC6(CCN(C(=O)c7cc(Cl)c(C)c(N8CCC(=O)NC8=O)c7)CC6)C5)C(F)(F)C4)cccc32)nn2c(C(=O)N[C@@H]3CC[C@H]3OC)cnc12` (some centres unmarked) [I-1068], which “TYK2 MSD OCI-LY10 Dmax %” value is on record?
Answer: The value was “A (A (>90%))”.

Question: What about the DC50 of the same molecule?
Answer: The DC50 was < 1 nM.

Question: How did the “TYK2 MSD OCI-LY10 Dmax %” value turn out when `CNc1cc(N2CCc3c(CN4CCC(N5CCC(C6CCN(C(=O)c7ccc(Cl)c(N8CCC(=O)NC8=O)c7)CC6)CC5)C(F)(F)C4)cccc32)nn2c(C(=O)N[C@@H]3CC[C@H]3OC)cnc12` (some centres unmarked) [I-1069] was run?
Answer: The value was “A (A (>90%))”.

Question: What about the DC50 of the same molecule?
Answer: Its DC50 is < 1 nM.

Question: With `CNc1cc(N2CCc3c(-c4ccc(CN5CC6(CCN(C(=O)c7cc(C)c(Cl)c(N8CCC(=O)NC8=O)c7)CC6(F)F)C5)cn4)cccc32)nn2c(C(=O)NC(C)c3ncco3)cnc12` (centres unmarked) [I-1072] as the molecule, how does the “TYK2 MSD OCI-LY10 Dmax %” value read?
Answer: The value was “B (B (90 to >75%))”.

Question: What about the DC50 of the same molecule?
Answer: The DC50 was < 10 nM.

Question: `CNc1cc(N2CCc3c(CN4CCC(N5CC6(CCN(C(=O)c7cc(C)c(Cl)c(N8CCC(=O)NC8=O)c7)CC6)C5)C(F)(F)C4)cccc32)nn2c(C(=O)N[C@@H]3CC[C@H]3OC)cnc12` (some centres unmarked) [I-1073] was tested. Which “TYK2 MSD OCI-LY10 Dmax %” value did it give?
Answer: Its value is “A (A (>90%))”.

Question: And the DC50?
Answer: The DC50 was < 1 nM.

Question: Which results are given for `CNc1cc(N2CCc3c(CN4CCC(CN5CCC6(CC5)CCN(C(=O)c5ccc(Cl)c(N7CCC(=O)NC7=O)c5)CC6)C(F)(F)C4)cccc32)nn2c(C(=O)N[C@@H]3CC[C@H]3OC)cnc12` (stereo partly drawn) [I-1074, 6-(4-{[4-({9-[14-chloro-3-(2,4-dioxo-1,3-diazinan-1-yl)benzoyl]-3,9-diazaspiro[5.5]undecan-3-yl}methyl)-3,3-difluoropiperidin-1-yl]methyl}-2,3-dihydroindol-1-yl)-N-[(1R,2R)-2-methoxycyclobutyl]-8-(methylamino)imidazo[1,2-b]pyridazine-3-carboxamide]?
Answer: Dmax: > 90%; DC50: < 1 nM

Question: Which “TYK2 MSD OCI-LY10 Dmax %” value does the source give for `CNc1cc(N2CCc3c(-c4ccc(CN5CC6(CCN(C(=O)c7cc(C)c(Cl)c(N8CCC(=O)NC8=O)c7)CC6(F)F)C5)cn4)cccc32)nn2c(C(=O)NCc3ncco3)cnc12` [I-1077] here?
Answer: The value was “B (B (90 to >75%))”.

Question: What about the DC50 of the same molecule?
Answer: The DC50 was < 1 nM.

Question: Which “TYK2 MSD OCI-LY10 Dmax %” value does the source give for `CNc1cc(N2CCc3c(CN4CCC(N5CCC6(CCN(C(=O)c7cc(F)c(Cl)c(N8CCC(=O)NC8=O)c7)CC6)CC5)C(F)(F)C4)cccc32)nn2c(C(=O)NC3CCC3OC)cnc12` (centres unmarked) [I-1078] here?
Answer: Its value is “A (A (>90%))”.

Question: And the DC50?
Answer: The DC50 was < 1 nM.

Question: With `CNc1cc(N2CCc3c(CN4CCC(N5CCC6(CCN(C(=O)c7cc(F)c(C)c(N8CCC(=O)NC8=O)c7)CC6)CC5)C(F)(F)C4)cccc32)nn2c(C(=O)N[C@@H]3CC[C@H]3OC)cnc12` (some centres unmarked) [I-1081] as the molecule, how does the “TYK2 MSD OCI-LY10 Dmax %” value read?
Answer: Its value is “A (A (>90%))”.

Question: What about the DC50 of the same molecule?
Answer: The DC50 was < 1 nM.

Question: How did the “TYK2 MSD OCI-LY10 Dmax %” value turn out when `CNc1cc(N2CCc3c(-c4ccc(CN5CCC6(CCN(C(=O)c7ccc(Cl)c(N8CCC(=O)NC8=O)c7)C6)C(F)(F)C5)cn4)cccc32)nn2c(C(=O)N[C@@H]3C[C@@H]3F)cnc12` (some centres unmarked) [I-1082] was run?
Answer: Its value is “B (B (90 to >75%))”.

Question: What about the DC50 of the same molecule?
Answer: The DC50 was < 1 nM.

Question: `CNc1cc(N2CCc3c(CN4CCC(N5CCC6(CCN(C(=O)c7cc(N8CCC(=O)NC8=O)c(Cl)cc7F)CC6)CC5)C(F)(F)C4)cccc32)nn2c(C(=O)N[C@@H]3CC[C@H]3OC)cnc12` (some centres unmarked) [I-1084] was tested. Which “TYK2 MSD OCI-LY10 Dmax %” value did it give?
Answer: The value was “A (A (>90%))”.

Question: And the DC50?
Answer: The DC50 was < 1 nM.
